Measured values: paper PMC7998309, “Structural-Based Optimizations of the Marine-Originated Meridianin C as Glucose Uptake Agents by Inhibiting GSK-3β” (Marine Drugs, 2021)

Key:
HepG2 cells [1] = experiment: Cell glucose uptake assay in HepG2 cells; assay type: cell-based, human; details: relative glucose uptake at 5 µM in HepG2 cells, 3 h, compared with original glucose concentration of the medium; na = not active at 5 µM
Protocol: (§1) The hepatocyte cell line HepG2 cells obtained from the Type Culture Collection of the Chinese Academy of Sciences (Shanghai, China) were maintained in high-glucose DMEM (Gibco) supplemented with 10% fetal bovine serum (FBS) and 1% penicillin-streptomycin in an atmosphere of 5% CO2 at 37 °C.
Into a 96-well plate, 5 × 10^3 HepG2 cells per well were seeded. After 48 h, phenol red-free DMEM (Gibco) with 1% FBS was transferred to deprive the cells overnight, and then the tested compounds dissolved in a glucose-HEPES buffer (glucose concentration was 100 µg/mL) at a concentration of 5 µM were added to the culture system. Three hours later, the culture supernatants were collected and the glucose concentrations were detected using the Glucose (GO) Assay Kit (Sigma-Aldrich Corp.). Compared with the original glucose concentration of the buffer, the relative glucose uptake was calculated.

[2] = MTT assay for cell viability (cytotoxicity); assay type: cell-based, human; details: human; HepG2 cells, 48 h incubation, MTT
Protocol: as §1
(§2) Into a 96-well plate, 1 × 10^3 HepG2 cells per well were seeded. After 24 h, stock solutions of test compounds in DMSO were diluted in DMEM to ≤0.1% final DMSO concentration. Cells were treated with various concentrations (2.5–25 µM) of tested compounds for 48 h, and the MTT solution (0.5 mg/mL) was added. After 4 h of incubation at 37 °C for MTT-formazan formation, the supernatant was discarded and 100 µL of DMSO was applied into each well to dissolve formazan crystals. Absorbance at 490 nm was determined spectrophotometrically by using a microplate reader (Epoch, BioTek Instruments, Inc., Winooski, VT, USA).

human GSK-3β = target: T1, human GSK-3β (Homo sapiens, UniProt P49841); experiment: Inhibition of recombinant GSK-3β (Z-lyte assay); assay type: biochemical; details: for IC50: human GSK-3β, top concentration 30 μM
T1 construct: purchased Invitrogen
Protocol: The activity of recombinant GSK-3β (Invitrogen) was measured in a Z-lyte assay of Invitrogen. In this assay, 100 nL of the compound solution in DMSO was transferred to a 384-well assay plate (the compound got threefold serial dilution, and the top concentration of the compound was 30 μM in the final reaction mixture). Then 5 μL of an enzyme (2 nM) and Ser/Thr 9 peptide (4 μM) mixture was added. After the enzyme and peptide pre-incubation with the compound for 30 min at 23 °C, 5 μL of ATP (12 μM) solution was added. The plate was incubated for 60 min at 23 °C. The reaction was stopped with 5 μL of development reagent. Fluorescence signals were detected with Envision (PerkinElmer, America) after 30 min of incubation, and the emission ratio (RFU 460 nm/RFU 535 nm) was used to analyze the data. The relative IC50 was reported using four-parameter logistic fit of IDBS Xlfit software. The IC50 values were calculated using the following equation: %Phosphorylation = 1 - (Emission Ratio × F100%) - C100%/(C0% - C100%) + [Emission Ratio × (F100% - F0%)] where
Emission ratio = Coumarin/Fluorescein ratio of sample wells
C100% = Average coumarin emission signal of the 100% phos. control
C0% = Average coumarin emission signal of the 0% phos. control
F100% = Average fluorescein emission signal of the 100% phos. control
F0% = Average fluorescein emission signal of the 0% phos. control %Inhibition = {1 - %Phos Sample/%Phos 0%Inhibition Ctl}*100

HepG2 cells [3] = experiment: MTT assay for cell viability (cytotoxicity); assay type: cell-based, human
Protocol: as §1, §2

T1 sequence (P49841 whole entry): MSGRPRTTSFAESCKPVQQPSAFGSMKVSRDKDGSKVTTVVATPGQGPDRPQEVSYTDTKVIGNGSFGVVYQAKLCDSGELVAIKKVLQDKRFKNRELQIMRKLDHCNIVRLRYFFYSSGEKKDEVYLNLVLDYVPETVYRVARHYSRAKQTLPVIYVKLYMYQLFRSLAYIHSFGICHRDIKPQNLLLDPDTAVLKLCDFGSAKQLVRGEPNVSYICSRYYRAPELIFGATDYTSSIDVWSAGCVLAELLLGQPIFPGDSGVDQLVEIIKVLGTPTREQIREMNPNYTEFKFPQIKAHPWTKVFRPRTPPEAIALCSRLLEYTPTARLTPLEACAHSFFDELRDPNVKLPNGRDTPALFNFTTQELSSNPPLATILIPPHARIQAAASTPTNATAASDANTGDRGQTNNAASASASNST

Row | Structure (SMILES) | Cell Glucose Uptake (%) (HepG2 cells [1]) | CC50 at 48 h [2] [µM] | inhibitory activity against GSK-3β at 30 µM (in words) (human GSK-3β) | IC50 (human GSK-3β) [µM] | melting point [°C] | toxicity against HepG2 cells (in words) (HepG2 cells [3])
1 | Nc1ncc(-c2ccc(NC(=O)c3ccccc3Br)cc2)c(-c2c[nH]c3ccc(Br)cc23)n1 [A13, N-(4-(2-amino-4-(5-bromo-1H-indol-3-yl)pyrimidin-5-yl)phenyl)-2-bromobenzamide] | 27% | > 25 | no apparent inhibitory activity | > 30 | 147.4 to 148.3 | –
2 | Cc1ccc(C(=O)Nc2ccc(-c3cnc(N)nc3-c3c[nH]c4ccc(Br)cc34)cc2)cc1 [A21, N-(4-(2-amino-4-(5-bromo-1H-indol-3-yl)pyrimidin-5-yl)phenyl)-4-methylbenzamide] | 24% | 6.9 | – | – | 291.7 to 292.4 | –
3 | Nc1ncc(-c2ccc(NC(=O)c3cc(Cl)cc(Cl)c3)cc2)c(-c2c[nH]c3ccc(Br)cc23)n1 [A26, N-(4-(2-amino-4-(5-bromo-1H-indol-3-yl)pyrimidin-5-yl)phenyl)-3,5-dichlorobenzamide] | 22% | 14.3 | no apparent inhibitory activity | > 30 | 177.7 to 178.5 | –
4 | Fc1ccccc1Nc1nccc(-c2c[nH]c3ccc(Br)cc23)n1 [B1, 4-(5-Bromo-1H-indol-3-yl)-N-(2-fluorophenyl) pyrimidin-2-amine] | 20% | 10.5 | – | – | 206.6 to 207.1 | –
5 | Fc1cccc(Nc2nccc(-c3c[nH]c4ccc(Br)cc34)n2)c1 [B2, 4-(5-Bromo-1H-indol-3-yl)-N-(3-fluorophenyl) pyrimidin-2-amine] | no change | 10.7 | – | – | 211.8 to 212.4 | –
6 | Fc1ccc(Nc2nccc(-c3c[nH]c4ccc(Br)cc34)n2)cc1 [B3, 4-(5-Bromo-1H-indol-3-yl)-N-(4-fluorophenyl) pyrimidin-2-amine] | 7.4% | 12.8 | – | – | 246.8 to 247.7 | –
7 | Clc1ccccc1Nc1nccc(-c2c[nH]c3ccc(Br)cc23)n1 [B4, 4-(5-Bromo-1H-indol-3-yl)-N-(2-chlorophenyl) pyrimidin-2-amine] | 22% | > 25 | – | – | 173.8 to 174.6 | –
8 | Clc1ccc(Nc2nccc(-c3c[nH]c4ccc(Br)cc34)n2)cc1 [B6, 4-(5-Bromo-1H-indol-3-yl)-N-(4-chlorophenyl) pyrimidin-2-amine] | 14.4% | 21.1 | – | – | 273.5 to 274.8 | –
9 | Brc1ccc2[nH]cc(-c3ccnc(Nc4ccccc4Br)n3)c2c1 [B7, 4-(5-Bromo-1H-indol-3-yl)-N-(2-bromophenyl) pyrimidin-2-amine] | 26% | > 25 | – | – | 177.8 to 178.4 | –
10 | Brc1ccc(Nc2nccc(-c3c[nH]c4ccc(Br)cc34)n2)cc1 [B9, 4-(5-Bromo-1H-indol-3-yl)-N-(4-bromophenyl) pyrimidin-2-amine] | 12.6% | 20.3 | – | – | 276.7 to 277.5 | –
11 | FC(F)(F)c1ccccc1Nc1nccc(-c2c[nH]c3ccc(Br)cc23)n1 [B10, 4-(5-Bromo-1H-indol-3-yl)-N-(2-(trifluoromethyl)phenyl) pyrimidin-2-amine] | 20.2% | > 25 | – | – | 150.5 to 151.3 | –
12 | Cc1ccccc1Nc1nccc(-c2c[nH]c3ccc(Br)cc23)n1 [B13, 4-(5-Bromo-1H-indol-3-yl)-N-(o-tolyl) pyrimidin-2-amine] | 14.9% | > 25 | – | – | 187.6 to 188.4 | –
13 | COc1ccccc1Nc1nccc(-c2c[nH]c3ccc(Br)cc23)n1 [B16, 4-(5-Bromo-1H-indol-3-yl)-N-(2-methoxyphenyl) pyrimidin-2-amine] | 17% | 21.4 | – | – | 207.9 to 208.3 | –
14 | COc1ccc(Nc2nccc(-c3c[nH]c4ccc(Br)cc34)n2)cc1 [B18, 4-(5-Bromo-1H-indol-3-yl)-N-(4-methoxyphenyl) pyrimidin-2-amine] | 6.1% | 6 | – | – | 245.7 to 246.3 | –
15 | CC(C)c1ccccc1Nc1nccc(-c2c[nH]c3ccc(Br)cc23)n1 [B19, 4-(5-Bromo-1H-indol-3-yl)-N-(2-isopropylphenyl) pyrimidin-2-amine] | 13% | > 25 | – | – | 110.5 to 111.3 | –
16 | CC(C)c1ccc(Nc2nccc(-c3c[nH]c4ccc(Br)cc34)n2)cc1 [B21, 4-(5-Bromo-1H-indol-3-yl)-N-(4-isopropylphenyl) pyrimidin-2-amine] | – | 13 | – | – | 218.7 to 219.4 | –
17 | Brc1ccc2[nH]cc(-c3ccnc(Nc4ccccc4)n3)c2c1 [B22, 4-(5-Bromo-1H-indol-3-yl)-N-phenylpyrimidin-2-amine] | – | 10.4 | – | – | 197.6 to 198.7 | –
18 | Fc1cc(F)cc(Nc2nccc(-c3c[nH]c4ccc(Br)cc34)n2)c1 [B23, 4-(5-Bromo-1H-indol-3-yl)-N-(3,5-difluorophenyl) pyrimidin-2-amine] | – | 16.1 | – | – | 251.3 to 252.2 | –
19 | Clc1cc(Cl)cc(Nc2nccc(-c3c[nH]c4ccc(Br)cc34)n2)c1 [B24, 4-(5-Bromo-1H-indol-3-yl)-N-(3,5-dichlorophenyl) pyrimidin-2-amine] | – | 10.5 | – | – | 223.6 to 224.3 | –
20 | Brc1cc(Br)cc(Nc2nccc(-c3c[nH]c4ccc(Br)cc34)n2)c1 [B25, 4-(5-Bromo-1H-indol-3-yl)-N-(3,5-dibromophenyl) pyrimidin-2-amine] | – | > 25 | – | – | 193.4 to 193.7 | –
21 | FC(F)(F)c1cc(Nc2nccc(-c3c[nH]c4ccc(Br)cc34)n2)cc(C(F)(F)F)c1 [B26, N-(3,5-bis(trifluoromethyl)phenyl)-4-(5-bromo-1H-indol-3-yl) pyrimidin-2-amine] | – | 11.8 | – | – | 220.9 to 221.3 | –
22 | Cc1cc(C)cc(Nc2nccc(-c3c[nH]c4ccc(Br)cc34)n2)c1 [B27, 4-(5-Bromo-1H-indol-3-yl)-N-(3,5-dimethylphenyl) pyrimidin-2-amine] | – | 6 | – | – | 184.6 to 185.3 | –
23 | COc1cc(Nc2nccc(-c3c[nH]c4ccc(Br)cc34)n2)cc(OC)c1 [B28, 4-(5-Bromo-1H-indol-3-yl)-N-(3,5-dimethoxyphenyl) pyrimidin-2-amine] | – | 10 | – | – | 255.6 to 256.8 | –
24 | Fc1cccc(F)c1Nc1nccc(-c2c[nH]c3ccc(Br)cc23)n1 [B29, 4-(5-Bromo-1H-indol-3-yl)-N-(2,6-difluorophenyl) pyrimidin-2-amine] | 29% | 22.4 | – | 5.85 | 263.3 to 264.2 | no significant toxicity
25 | COc1cccc(OC)c1Nc1nccc(-c2c[nH]c3ccc(Br)cc23)n1 [B31, 4-(5-Bromo-1H-indol-3-yl)-N-(2,6-dimethoxyphenyl) pyrimidin-2-amine] | 16% | 19.2 | – | – | 244.3 to 245.6 | –
26 | Cn1sc(=O)n(Cc2ccccc2)c1=O [TDZD-8, 4-benzyl-2-methyl-1,2,4-thiadiazolidine-3,5-dione, reference compound] | 16% | > 25 | – | – | – | –
27 | Nc1nccc(-c2c[nH]c3ccc(Br)cc23)n1 [meridianin C] | < 5% | 13 | – | – | – | –
